# pIC50: −log10 of the molar value.
# Molecular target: T1, Dimer of Gag-Pol polyprotein [489-587] (Human immunodeficiency virus 1, UniProt P12497)
# T1 construct: 489-587
# Test: Protease Inhibition Assay
# Conditions: pH 6.2; 37 °C
# Experimental: For determination of IC50 values, HIV-1 protease was added to assay buffer containing inhibitor and the substrate (H-His-Lys-Ala-Arg-Val-Leu- (p-NO2) Phe-Glu-Ala-norleucine-Ser-NH2). The Leu- (p-NO2) Phe bond of the substrate was cleaved by the enzyme, and the substrate and products were separated by reversed-phase HPLC. Absorbance was measured at 220 nm, peak areas were determined, and percentage conversion to product was calculated.
row,SMILES,pIC50
1,CCNS(=O)(=O)Oc1cc(C(C)(C)C)c(SC2C(=O)CC(CCc3ccccc3)(C(C)C)OC2=O)cc1C (stereo unspecified),8.05
2,"Cc1cc(SC2C(=O)CC(CCc3ccc(N)cc3)(C(C)C)OC2=O)c(C(C)(C)C)cc1OS(=O)(=O)N1CCN(C)CC1 (stereo unspecified) [4-({6-[2-(4-aminophenyl)ethyl]-4-hydroxy-2-oxo-6-(propan-2-yl)-5,6-dihydro-2H-pyran-3-yl}sulfanyl)-5-tert-butyl-2-methylphenyl 4-methylpiperazine-1-sulfonate]",9.00
3,"Cc1cc(SC2C(=O)CC(CCc3ccc(N)cc3)(C(C)C)OC2=O)c(C(C)(C)C)cc1OS(=O)(=O)N(C)C (stereo unspecified) [4-({6-[2-(4-aminophenyl)ethyl]-4-hydroxy-2-oxo-6-(propan-2-yl)-5,6-dihydro-2H-pyran-3-yl}sulfanyl)-5-tert-butyl-2-methylphenyl N,N-dimethylsulfamate]",8.41
4,"CCNS(=O)(=O)Oc1cc(C(C)(C)C)c(SC2C(=O)CC(CCc3ccc(N)cc3)(C(C)C)OC2=O)cc1C (stereo unspecified) [4-({6-[2-(4-aminophenyl)ethyl]-4-hydroxy-2-oxo-6-(propan-2-yl)-5,6-dihydro-2H-pyran-3-yl}sulfanyl)-5-tert-butyl-2-methylphenyl N-ethylsulfamate]",8.37
5,"Cc1cc(SC2C(=O)CC(CCc3ccc(O)cc3)(C(C)C)OC2=O)c(C(C)(C)C)cc1OS(=O)(=O)N1CCN(C)CC1 (stereo unspecified) [5-tert-butyl-4-({4-hydroxy-6-[2-(4-hydroxyphenyl)ethyl]-2-oxo-6-(propan-2-yl)-5,6-dihydro-2H-pyran-3-yl}sulfanyl)-2-methylphenyl 4-methylpiperazine-1-sulfonate]",8.51
6,"CNS(=O)(=O)Oc1cc(C(C)(C)C)c(SC2C(=O)CC(CCc3ccc(O)cc3)(C(C)C)OC2=O)cc1C (stereo unspecified) [5-tert-butyl-4-({4-hydroxy-6-[2-(4-hydroxyphenyl)ethyl]-2-oxo-6-(propan-2-yl)-5,6-dihydro-2H-pyran-3-yl}sulfanyl)-2-methylphenyl N-methylsulfamate]",8.92
7,"CCCNS(=O)(=O)Oc1cc(C(C)(C)C)c(SC2C(=O)CC(CCc3ccc(O)cc3)(C(C)C)OC2=O)cc1C (stereo unspecified) [5-tert-butyl-4-({4-hydroxy-6-[2-(4-hydroxyphenyl)ethyl]-2-oxo-6-(propan-2-yl)-5,6-dihydro-2H-pyran-3-yl}sulfanyl)-2-methylphenyl N-propylsulfamate]",8.52
8,"Cc1cc(SC2C(=O)CC(CCc3ccc(O)cc3)(C(C)C)OC2=O)c(C(C)(C)C)cc1OS(=O)(=O)N1CCOCC1 (stereo unspecified) [5-tert-butyl-4-({4-hydroxy-6-[2-(4-hydroxyphenyl)ethyl]-2-oxo-6-(propan-2-yl)-5,6-dihydro-2H-pyran-3-yl}sulfanyl)-2-methylphenyl morpholine-4-sulfonate]",8.59
9,"CCNS(=O)(=O)Oc1cc(C(C)(C)C)c(SC2C(=O)CC(CCc3ccc(O)cc3)(c3ccccc3)OC2=O)cc1C (stereo unspecified) [5-tert-butyl-4-({4-hydroxy-6-[2-(4-hydroxyphenyl)ethyl]-2-oxo-6-phenyl-5,6-dihydro-2H-pyran-3-yl}sulfanyl)-2-methylphenyl N-ethylsulfamate]",7.59
10,"Cc1cc(SC2C(=O)CC(C)(CCc3ccc(O)cc3)OC2=O)c(C(C)(C)C)cc1OS(=O)(=O)N1CCN(C)CC1 (stereo unspecified) [5-tert-butyl-4-({4-hydroxy-6-[2-(4-hydroxyphenyl)ethyl]-6-methyl-2-oxo-5,6-dihydro-2H-pyran-3-yl}sulfanyl)-2-methylphenyl 4-methylpiperazine-1-sulfonate]",8.15
11,"Cc1cc(SC2C(=O)CC(C)(CCc3ccc(O)cc3)OC2=O)c(C(C)(C)C)cc1OS(=O)(=O)N(C)C (stereo unspecified) [5-tert-butyl-4-({4-hydroxy-6-[2-(4-hydroxyphenyl)ethyl]-6-methyl-2-oxo-5,6-dihydro-2H-pyran-3-yl}sulfanyl)-2-methylphenyl N,N-dimethylsulfamate]",8.80
12,"CCNS(=O)(=O)Oc1cc(C(C)(C)C)c(SC2C(=O)CC(C)(CCc3ccc(O)cc3)OC2=O)cc1C (stereo unspecified) [5-tert-butyl-4-({4-hydroxy-6-[2-(4-hydroxyphenyl)ethyl]-6-methyl-2-oxo-5,6-dihydro-2H-pyran-3-yl}sulfanyl)-2-methylphenyl N-ethylsulfamate]",8.64
13,"CCCNS(=O)(=O)Oc1cc(C(C)(C)C)c(SC2C(=O)CC(C)(CCc3ccc(O)cc3)OC2=O)cc1C (stereo unspecified) [5-tert-butyl-4-({4-hydroxy-6-[2-(4-hydroxyphenyl)ethyl]-6-methyl-2-oxo-5,6-dihydro-2H-pyran-3-yl}sulfanyl)-2-methylphenyl N-propylsulfamate]",8.21
14,"Cc1cc(SC2C(=O)CC(CCc3ccc(O)cc3)(C3CCCCC3)OC2=O)c(C(C)(C)C)cc1OS(=O)(=O)N1CCN(C)CC1 (stereo unspecified) [5-tert-butyl-4-({6-cyclohexyl-4-hydroxy-6-[2-(4-hydroxyphenyl)ethyl]-2-oxo-5,6-dihydro-2H-pyran-3-yl}sulfanyl)-2-methylphenyl 4-methylpiperazine-1-sulfonate]",8.01
15,"Cc1cc(SC2C(=O)CC(CCc3ccc(O)cc3)(C3CCCCC3)OC2=O)c(C(C)(C)C)cc1OS(=O)(=O)N(C)C (stereo unspecified) [5-tert-butyl-4-({6-cyclohexyl-4-hydroxy-6-[2-(4-hydroxyphenyl)ethyl]-2-oxo-5,6-dihydro-2H-pyran-3-yl}sulfanyl)-2-methylphenyl N,N-dimethylsulfamate]",7.70
16,"CCNS(=O)(=O)Oc1cc(C(C)(C)C)c(SC2C(=O)CC(CCc3ccc(O)cc3)(C3CCCCC3)OC2=O)cc1C (stereo unspecified) [5-tert-butyl-4-({6-cyclohexyl-4-hydroxy-6-[2-(4-hydroxyphenyl)ethyl]-2-oxo-5,6-dihydro-2H-pyran-3-yl}sulfanyl)-2-methylphenyl N-ethylsulfamate]",8.32
17,"Cc1cc(SC2C(=O)CC(CCc3ccccc3)(C(C)C)OC2=O)c(C(C)(C)C)cc1OS(=O)(=O)N1CCN(C)CC1 (stereo unspecified) [5-tert-butyl-4-{[4-hydroxy-2-oxo-6-(2-phenylethyl)-6-(propan-2-yl)-5,6-dihydro-2H-pyran-3-yl]sulfanyl}-2-methylphenyl 4-methylpiperazine-1-sulfonate]",8.41
18,"Cc1cc(SC2C(=O)CC(C)(CCc3ccc(O)cc3)OC2=O)c(C(C)(C)C)cc1O (stereo unspecified) [6-Alkyl-5,6-Dihydropyran-2-one 13]",8.19
19,"CCNS(=O)(=O)Oc1cc(C(C)(C)C)c(SC2C(=O)CC(CCc3ccc(O)cc3)(C(C)C)OC2=O)cc1C (stereo unspecified) [6-Alkyl-5,6-Dihydropyran-2-one 20]",8.31
20,"Cc1cc(SC2C(=O)CC(CCc3ccc(O)cc3)(C(C)C)OC2=O)c(C(C)(C)C)cc1OS(=O)(=O)N(C)C (stereo unspecified) [6-Alkyl-5,6-Dihydropyran-2-one 22]",8.47
21,"Cc1cc(SC2C(=O)CC(C)(CCc3ccc(O)cc3)OC2=O)c(C(C)(C)C)cc1OS(N)(=O)=O (stereo unspecified) [[5-tert-butyl-4-({4-hydroxy-6-[2-(4-hydroxyphenyl)ethyl]-6-methyl-2-oxo-5,6-dihydro-2H-pyran-3-yl}sulfanyl)-2-methylphenyl] sulfamate]",8.74

# Source: BindingDB's records for doi:10.1016/s0960-894x(99)00360-1 (Parke-Davis Pharmaceutical Research, 1999)
